For data set [1] the following is noted: 25% fresh human blood plasma in water, 37 °C; 20 µL of 10 mg/mL peptide stock in 1 mL; TFA quench; LC/ESI-MS peak area; triplicate; followed over 360 min. The procedure: An aliquot (20 μL) of the aqueous peptide stock solution (10 mg/mL) was added to 1 mL of 25% solution of fresh human blood plasma in water at 37 °C. Aliquots (50 μL) were withdrawn and added to 5 μL of pure trifluoroacetic acid (TFA) at different time intervals, then incubated at 5 °C for 15 min. Following incubation, the resulting mixtures were centrifuged at 3000 g for 5 min. The supernatants (20 μL) were injected into an online LC/ESI-MS equipment. Elution was performed using an ACN/TFA linear gradient of 3% to 57% ACN at a flow rate of 0.3 mL/min for 30 min. The remaining peptide was monitored by the corresponding peak area in the chromatogram. Assays were conducted in triplicate.
The human blood sample was obtained from a healthy adult donor at Vital Brazil Hospital in accordance with Ethical Guidelines of the Butantan Institute (protocol CEUAIB No. I-1043/13). Written informed consent was obtained from the donor.

The subject of data set [2] is All of the microorganisms tested. As to the kind of experiment: Antimicrobial activity, summary over all microorganisms tested. In kind it is cell-based. The conditions noted are these: summary of Table 1; 17 bacterial, yeast and fungal strains. The procedure:
(§1) During the purification procedure, the antimicrobial activities of the fractions were monitored by liquid growth inhibition assays against E. coli SBS 363, M. luteus A270, A. niger, and C. albicans MDM8. Bacteria were cultured in poor nutrient broth (PB) (1.0 g peptone in 100 mL of water containing 86 mM NaCl at pH 7.4; 217 mOsm), and fungi and yeasts were cultured in poor potato dextrose broth (1/2- strength PDB) (1.2 g potato dextrose in 100 mL of water at pH 5.0; 79 mOsm). Determination of antimicrobial activity was performed as previously described[12]–[14].
(§2) The MIC is defined as the minimum concentration of peptide required to achieve 100% growth inhibition. […] The two peptides were dissolved in ultrapure water at a final concentration of 1 mM. […] MBCs were determined after 96 h of incubation at 30 °C. The lowest concentration with no visible growth was defined as the MBC, indicating 99.5% killing of the original inoculum. Microbial growth was measured by monitoring the increase in optical density at 595 nm using a Victor 3TM 1420 multilabel counter (PerkinElmer, Waltham, MA, USA). Assays were performed in triplicate.

The subject of data set [3] is Candida tropicalis IOC 4560. As to the kind of experiment: Liquid growth inhibition assay (MIC/MBC). The class given is cell-based. The conditions noted are these: 1/2-strength PDB, highest concentration tested 100 µM, triplicate. The procedure:
as §1, §2

Data set [4] relates to Serratia marcescens ATCC 4112. As to the kind of experiment: Liquid growth inhibition assay (MIC/MBC). In kind it is cell-based. The conditions noted are these: PB medium, highest concentration tested 100 µM, triplicate. As to the method: as §1, §2
In data set [5] the test system is Salmonella Arizonae ATCC 13314. As to the kind of experiment: Liquid growth inhibition assay (MIC/MBC). In kind it is cell-based. The note with it: PB medium, highest concentration tested 100 µM, triplicate. As to the method: as §1, §2
The next data set has as its system Candida albicans MDM8. As to the kind of experiment: Liquid growth inhibition assay (MIC/MBC). In kind it is cell-based. The conditions noted are these: 1/2-strength PDB, highest concentration tested 100 µM, triplicate. As to the method:
as §1, §2

The test system of a further data set is Aspergillus niger. Description: Liquid growth inhibition assay (MIC/MBC). The note with it: 1/2-strength PDB, highest concentration tested 100 µM, triplicate. In kind it is cell-based. As to the method:
as §1, §2

Data set [6] relates to Staphylococcus aureus ATCC 29213. Description: Liquid growth inhibition assay (MIC/MBC). The note with it: PB medium, highest concentration tested 100 µM, triplicate. The class given is cell-based. The procedure: as §1, §2
Data set [7] relates to Enterobacter cloacae β-12. As to the kind of experiment: Liquid growth inhibition assay (MIC/MBC). The note with it: PB medium, highest concentration tested 100 µM, triplicate. The class given is cell-based. As to the method: as §1, §2
In data set [8] the test system is Bacillus subtilis ATCC 6633. Description: Liquid growth inhibition assay (MIC/MBC). The class given is cell-based. The conditions noted are these: PB medium, highest concentration tested 100 µM, triplicate. The procedure: as §1, §2
Data set [9] deals with Pseudomonas aeruginosa ATCC 27853. As to the kind of experiment: Liquid growth inhibition assay (MIC/MBC). In kind it is cell-based. The note with it: PB medium, highest concentration tested 100 µM, triplicate. As to the method:
as §1, §2

Another data set deals with Beauveria bassiana. As to the kind of experiment: Liquid growth inhibition assay (MIC/MBC). The class given is cell-based. The conditions noted are these: 1/2-strength PDB, highest concentration tested 100 µM, triplicate. The procedure:
as §1, §2

Data set [10] has as its system Bacillus megaterium ATCC 10778. Description: Liquid growth inhibition assay (MIC/MBC). In kind it is cell-based. The note with it: PB medium, highest concentration tested 100 µM, triplicate. As to the method:
as §1, §2

Data set [11] deals with Salmonella Typhimurinum ATCC 14028. As to the kind of experiment: Liquid growth inhibition assay (MIC/MBC). In kind it is cell-based. The conditions noted are these: PB medium, highest concentration tested 100 µM, triplicate. As to the method:
as §1, §2

The subject of data set [12] is Alcaligenes faecalis ATCC 8750. As to the kind of experiment: Liquid growth inhibition assay (MIC/MBC). The note with it: PB medium, highest concentration tested 100 µM, triplicate. The class given is cell-based. As to the method:
as §1, §2

For a further data set, the system named is Escherichia coli D31. Description: Liquid growth inhibition assay (MIC/MBC). In kind it is cell-based. The conditions noted are these: PB medium, highest concentration tested 100 µM, triplicate. The procedure:
as §1, §2

A further data set relates to Escherichia coli SBS 363. Description: Liquid growth inhibition assay (MIC/MBC). The class given is cell-based. The note with it: PB medium, highest concentration tested 100 µM, triplicate. The procedure:
as §1, §2

The subject of data set [13] is Saccharomyces cerevisiae PM340. Description: Liquid growth inhibition assay (MIC/MBC). The class given is cell-based. The conditions noted are these: 1/2-strength PDB, highest concentration tested 100 µM, triplicate. The procedure: as §1, §2
The test system of the next data set is Micrococcus luteus A270. As to the kind of experiment: Liquid growth inhibition assay (MIC/MBC). In kind it is cell-based. The conditions noted are these: PB medium, highest concentration tested 100 µM, triplicate. The procedure: as §1, §2
The subject of another data set is human erythrocytes. Description: Haemolytic activity. The conditions noted are these: 3% erythrocytes in PBS, 3 h, 37 °C; for Haemolysis (%): A414, relative to 0.1% Triton X-100, triplicate. In kind it is cell-based. The procedure: Absorbance in the supernatant was measured at 414 nm. The haemolysis percentage was expressed in relation to a 100% lysis control (erythrocytes incubated with 0.1% Triton X-100); PBS was used as a negative control. Assays were conducted in triplicate.
Red blood cells were obtained under the same conditions and from the same donor mentioned in the plasma stability assay section.

Setting [14] is: 100% growth inhibition, two-fold serial dilution, 30 °C, 18 h.
[15] abbreviates: no visible growth after 96 h at 30 °C.

Structures are written as SMILES. In brackets after ≈: the same amount, converted by molar mass. Where a SMILES comes first, the peptide text is derived from it. Some results are limits rather than exact numbers.

For `CC(=O)N[C@H](C(=O)N[C@@H](C)C(=O)N[C@@H](CCC(=O)O)C(=O)N[C@@H](C)C(=O)N[C@@H](CCCNC(=N)N)C(=O)N[C@@H](CCC(N)=O)C(=O)NCC(=O)N[C@@H](CO)C(=O)N[C@@H](Cc1ccccc1)C(=O)N[C@@H](CO)C(=O)N[C@@H](Cc1ccc(O)cc1)C(N)=O)C(C)C` [Pinipesin AC] (Ac-VAEARQGSFSY-NH2), in data set [1], the “Time within which peptide is almost totally digested in human plasma” value is on record as at most 60 min. In addition, the “Concentrations at which active against all microorganisms tested” value in [2] is recorded as “did not show antimicrobial activity”.
In the case of `CC(C)[C@H](N)C(=O)N[C@@H](C)C(=O)N[C@@H](CCC(=O)O)C(=O)N[C@@H](C)C(=O)N[C@@H](CCCNC(=N)N)C(=O)N[C@@H](CCC(N)=O)C(=O)NCC(=O)N[C@@H](CO)C(=O)N[C@@H](Cc1ccccc1)C(=O)N[C@@H](CO)C(=O)N[C@@H](Cc1ccc(O)cc1)C(=O)O` [Pinipesin] (H-VAEARQGSFSY-OH), the minimum inhibitory concentration (MIC) in data set [3] (setting [14]) is recorded as 30.33 µg/mL (≈ 25 µM); in [4] (setting [14]), 30.33 µg/mL (≈ 25 µM); in data set [5] (setting [14]) it was 30.33 µg/mL (≈ 25 µM); in the data set with Candida albicans MDM8 (setting [14]), 30.33 µg/mL (≈ 25 µM); in the data set on Aspergillus niger (setting [14]), 30.33 µg/mL (≈ 25 µM); in data set [6] (setting [14]) it was 7.58 µg/mL (≈ 6.24 µM). Further, the MIC in data set [7] (setting [14]) is 30.33 µg/mL (≈ 25 µM); in data set [8] (setting [14]), 30.33 µg/mL (≈ 25 µM); in data set [9] (setting [14]), 15.16 µg/mL (≈ 12.5 µM); with Beauveria bassiana (setting [14]), 30.33 µg/mL (≈ 25 µM); in [10] (setting [14]) it was 15.16 µg/mL (≈ 12.5 µM); in [11] (setting [14]), 15.16 µg/mL (≈ 12.5 µM). The MIC was 15.16 µg/mL (≈ 12.5 µM) in [12] (setting [14]); 15.16 µg/mL (≈ 12.5 µM) with Escherichia coli D31 (setting [14]); 30.33 µg/mL (≈ 25 µM) in the data set on Escherichia coli SBS 363 (setting [14]); 30.33 µg/mL (≈ 25 µM) in [13] (setting [14]); 7.58 µg/mL (≈ 6.24 µM) against Micrococcus luteus A270 (setting [14]). Further, the MBC was 30.33 µg/mL (≈ 25 µM) in data set [3] (setting [15]); 30.33 µg/mL (≈ 25 µM) in [4] (setting [15]); 30.33 µg/mL (≈ 25 µM) in [5] (setting [15]); 30.33 µg/mL (≈ 25 µM) with Candida albicans MDM8 (setting [15]); 30.33 µg/mL (≈ 25 µM) against Aspergillus niger (setting [15]); 7.58 µg/mL (≈ 6.24 µM) in [6] (setting [15]). The MBC is reported as 30.33 µg/mL (≈ 25 µM) in data set [7] (setting [15]); 30.33 µg/mL (≈ 25 µM) in data set [8] (setting [15]); 15.16 µg/mL (≈ 12.5 µM) in [9] (setting [15]); 30.33 µg/mL (≈ 25 µM) in the data set on Beauveria bassiana (setting [15]); 15.16 µg/mL (≈ 12.5 µM) in data set [10] (setting [15]); 15.16 µg/mL (≈ 12.5 µM) in [11] (setting [15]). Also, the MBC was 15.16 µg/mL (≈ 12.5 µM) in data set [12] (setting [15]); 15.16 µg/mL (≈ 12.5 µM) with Escherichia coli D31 (setting [15]); 30.33 µg/mL (≈ 25 µM) against Escherichia coli SBS 363 (setting [15]); 30.33 µg/mL (≈ 25 µM) in data set [13] (setting [15]); 15.16 µg/mL (≈ 12.5 µM) against Micrococcus luteus A270 (setting [15]). The “Time within which peptide is almost totally digested in human plasma” value in [1] is recorded as at most 60 min. In addition, the “Haemolysis (%)” value in the data set on human erythrocytes (4 µM peptide), with human erythrocytes (8 µM peptide), in the data set on human erythrocytes (16 µM peptide), in the data set on human erythrocytes (32 µM peptide), in the data set with human erythrocytes (125 µM peptide) and with human erythrocytes (250 µM peptide) was 0% in each case. In the data set with human erythrocytes (500 µM peptide), the “Haemolysis (%)” value amounted to 25.14%. Also, the “Haemoglobin release at the concentrations active against bacteria, yeasts and fungi” value in the data set with human erythrocytes was “No haemoglobin release was observed”.

One may read the MIC as the lowest concentration that inhibits growth of the organism. Read a high MIC as a less susceptible organism.
